Patent US20260355147A1, “COMPOSITIONS COMPRISING TRIGONELLINE AND A UROLITHIN” (Amazentis SA, priority 2023, published 2026)

Key:
[1] = system: C2C12 myotubes; experiment: Mitochondrial respiration in C2C12 myotubes (Seahorse XF96, fatty acid oxidation analysis); format: cell-based, Mouse; conditions: 50 uM, 24 hours (FIG. 1)
Procedure: A combined treatment of urolithin A and trigonelline was performed and mitochondrial respiration was measured in rodent skeletal muscle cells.
Fatty acid oxidation analysis on C2C12 myotubes was measured with a Seahorse XF96 extracellular flux analyzer. C2C12s were seeded at 8,000 cells/well in an XF96 cell culture microplate. Once cells reached confluence, they were differentiated with DMEM (Gibco, 31966047) supplemented with 2% Horse serum, 1% PenStrep and 1% Hepes for 5 days. Cells were treated with UA 50 uM and Trigonelline 50 uM (Sigma, T5509) for 24 hours in substrate-limited media (Gibco, A1443001) supplemented with 0.5 mM glucose, 1 mM glutamine, 1% Oleic acid and 0.5 mM L-Carnitine. Maximal respiration was monitored by injection of 3 μM FCCP in the cartridge. Prior to the assay, cells were incubated in a Fatty acid oxidation medium (111 mM NaCl, 4.7 mM KCl, 1.25 mM CaCl2, 2 mM MgSO4, 1.2 mM NaH2PO4, 5 mM L-Carnitine, 5 mM Hepes, 2.5 mM Glucose) for 20 min, solution must be adjusted to pH 7.4 at 37 °C.

[2] = system: HSMM human primary skeletal muscle myoblasts; experiment: Mitochondrial respiration (oxygen consumption rate) in human primary skeletal muscle myoblasts HSMM (Seahorse XF96); format: cell-based; conditions: 24 hours, normalized over cellular DNA content
Procedure: Cells were treated as indicated with Urolithin A (UA) 6.25 uM and trigonelline (Trig) 500 uM, alone or in combination. DMSO 0.1% was used as control. Data are expressed as mean+/−SD. One-Way ANOVA, * p.val.<0.05.
A combined treatment of urolithin A and trigonelline was performed and mitochondrial respiration was measured in human primary skeletal muscle cells.
Mitochondrial respiration was measured as oxygen consumption rate on HSMM (LZ-CC-2580, Lonza), human primary skeletal muscle myoblasts was measured with a Seahorse XF96 extracellular flux analyzer. HSMMs were seeded at 3,500 cells/well in an XF96 cell culture microplate and cultured at 37 °C in a humidified atmosphere of 5% C02 in SKM-M Growth medium (AMSbio). […] Oxygen consumption rate was measured in Krebs Cycle medium (135 mM NaCl, KCL 3.6 mM, 0.5 mM NaH2PO4, 0.5 mM MgSO4, 10 mM HEPES, 5 mM NaHCO3) supplemented with 10 mM Glucose, 10 mM pyruvate and 2 mM Glutamine. Maximal respiration was monitored by injection of 6 μM FCCP in the cartridge. To normalize for differences in cell number across well, cellular DNA content was measured in the same microplate using the CyQuant NF kit (Thermofisher, C35006), following the manufacturer's instructions. Normalized mitochondrial respiration was then calculated as ratio between oxygen consumption rate and DNA content and expressed as fold change over the DMSO of the basal condition.

[3] = system: C2C12 muscle cell line; conditions: Ryu, D. et al. Nature Medicine 2016, 22, 879; cited from earlier work
[4] = system: human cells; conditions: at this dose (50 uM); FIG. 1 of US 2022/0241259 A1; cited from earlier work
[5] = system: HSMM myotubes; conditions: only at 1000 uM, 72 h, with simultaneous blocking of NAD+ salvage pathway with FK866; cited from earlier work
[6] = system: skeletal muscle cells; conditions: cited from earlier work
[7] = system: rodent tissues; conditions: in vivo; cited from earlier work
[8] = system: C. elegans; conditions: in vivo; cited from earlier work
[9] = system: muscle mass; conditions: in vivo; cited from earlier work

| SMILES | mitochondrial respiration ([1]; urolithin A alone) | mitochondrial respiration ([2]; urolithin A alone, 6.25 uM) | mitochondrial respiration [3] | mitochondrial respiration ([1]; trigonelline alone) | mitochondrial respiration ([2]; trigonelline alone, 500 uM) | biological effect on NAD production in human cells [4] | mitochondrial respiration in HSMM myotubes [5] | NAD^+ levels in skeletal muscle cells [6] | NAD^+ levels in rodent tissues [7] | lifespan in C. elegans models [8] | muscle mass in rodents [9] |
| --- | --- | --- | --- | --- | --- | --- | --- | --- | --- | --- | --- |
| O=c1oc2cc(O)ccc2c2ccc(O)cc12 [Urolithin A, urolithin A] | induced mitochondrial respiration | induced mitochondrial respiration | induced mitochondrial respiration as shown previously in the C2C12 muscle cell line | – | – | – | – | – | – | – | – |
| C[n+]1cccc(C(=O)[O-])c1 [trigonelline] | – | – | – | Mitochondrial respiration was also increased | Mitochondrial respiration was also increased | not shown to have a significant biological effect on NAD production | improvement in mitochondrial respiration | help to increase NAD^+ levels | help to increase NAD^+ levels | increase lifespan | induce muscle mass |
